Assay results published in publication PMC8329197, “Compounds targeting OSBPL7 increase ABCA1-dependent cholesterol efflux preserving kidney function in two models of kidney disease” (Nature Communications, 2021).
Several values for one entry are separate records, joined by “and”; a condition that tells them apart may be missing. Identical values can stand only once.

What was measured:
human THP1 macrophages = test: apoAI-mediated (ABCA1) cholesterol efflux from cholesterol-loaded THP1 macrophages; assay type: cell-based; parameters: ABCA1 Efflux %: dose or concentration left out as unconfirmed; settings: for ABCA1 percentage of induction, average: average of 3; for ABCA1 Efflux %: average(SEM); for ABCA1 percentage of induction: single experiments (3 per compound); for ABCA1 Efflux active/ inactive: vs. the effect of T1317
normal human fibroblasts = test: Cholesterol efflux to apoAI in normal human fibroblasts; settings: for Cholesterol Efflux (%), Normal Fibroblasts: efflux to apoAI, Cpd H, Cpd J 10 μM, single experiments
[1] = biological target: human cannabinoid 1 receptor (hCB1-R) (Homo sapiens, UniProt P21554); test: Potency for binding to the CB1R in vitro (Ki); settings: for Ki: human CB1 receptor binding
ABCA1 mRNA = ABCA1 mRNA by quantitative real-time PCR in cholesterol-loaded THP1 macrophages; assay type: cell-based, human; settings: up to 25 μM, THP1 macrophages, 24 h
Experimental: RNA was isolated using RNEasy Plus Mini kit (Qiagen). Reverse transcription was performed using qScript cDNA Super Mix (Quantabio) according to the manufacturer’s instructions. Quantitative real-time PCR was performed using TaqMan Fast Universal PCR Master Mix and Taqman gene expression assays (Supplementary Table 7).

OSBPL7 = tested on: T1, OSBPL7; test: Competition with ^3H-Cpd K UV cross-linking to FLAG-tagged OSBPL7 in HEK293 cells (immunoprecipitation, autoradiography); assay type: binding, human; parameters: OSBP7 percentage of inhibition / OSBP7 percentage of inhibition, average: concentration or dose not given beside the values; OSBPL7 Competition %: dose or concentration left out as unconfirmed; settings: for OSBP7 percentage of inhibition, average: average of 3; for OSBPL7 Competition %: average(SEM); for OSBP7 percentage of inhibition: single experiments (3 per compound)
T1 construct: Plasmids expressing each as a full-length protein with a C-terminal FLAG tag were obtained; expressed in transfected cells; host or cells: HEK293
Experimental: Briefly, a plasmid expressing a candidate target of interest fused with a FLAG tag was transfected into HEK293 cells. After 24 h, tritiated compound K at a concentration capable of inducing ABCA1-mediated cholesterol efflux (1.0 μM) was added for 3 h, then the live cells were exposed to UV-light (ʎ = 336 nm) to query potential compound/target cross-linking in situ. Cell lysates were prepared, the expressed protein was then selectively immunoprecipitated using an anti-FLAG antibody coupled to sepharose beads, bound proteins were separated by SDS-PAGE, and two identical blots were prepared and probed by western blot and by autoradiography to detect protein expression and presence or absence of compound crosslinking, respectively. The flow chart of this screen is illustrated in Fig. 2. Figure 2d illustrates the ability of Cpd A and Cpd G to displace tritiated Cpd K from overexpressed and immunoprecipitated OSBPL7. Figure 3b illustrates the use of this assay to detect binding of tritiated Cpd K to overexpressed and immunoprecipitated variants of OSBPL7 containing point mutations in the predicted oxysterol binging pocket of OSBPL7. The advantages of this method are: i. the use of plasmid transfection leads to high expression of each candidate which reduces the likelihood to miss an authentic target for those which may be expressed at low endogenous levels, ii. the interaction of the chemical probe with its target occurs in a relevant biological context (live cells) at a pharmacologically active concentration, and iii. immunoprecipitation allows the expressed protein of interest to be purified from background proteins, substantially improving the signal/noise ratio.

[2] = tested on: Tangier (ABCA1-deficient) fibroblasts; test: Cholesterol efflux in Tangier (ABCA1-deficient) fibroblasts; settings: for Cholesterol Efflux (%), Tangier Fibroblasts: ABCA1-deficient, Cpd H, Cpd J 10 μM, single experiments
[3] = tested on: T2, OSBPL7 single mutations in the putative ORD; test: ^3H-Cpd K binding to OSBPL7 single mutants (cross-linking/immunoprecipitation); parameters: species or system human; settings: K636A vs wild type
T2 construct: Plasmids expressing each as a full-length protein with a C-terminal FLAG tag were obtained; expressed in transfected cells; host or cells: HEK293
Description: Based on the model, we identified key amino acid residues predicted to line the OSBPL7 ligand-binding pocket, and introduced a series of single mutations. Each mutant was transfected into cells and tested for ^3H-Cpd K binding. Mutation of lysine 636 to alanine reduced the ability of Cpd K to be crosslinked to OSBPL7 by ~75% (Fig. 3b). […] The homology model also predicts that a hydrophobic beta sheet lines the pocket, defined by amino acids that are conserved in the ORDs of other OSBPs (Ile641, Val616, Val618, and Lys636).
Briefly, a plasmid expressing a candidate target of interest fused with a FLAG tag was transfected into HEK293 cells. After 24 h, tritiated compound K at a concentration capable of inducing ABCA1-mediated cholesterol efflux (1.0 μM) was added for 3 h, then the live cells were exposed to UV-light (ʎ = 336 nm) to query potential compound/target cross-linking in situ. Cell lysates were prepared, the expressed protein was then selectively immunoprecipitated using an anti-FLAG antibody coupled to sepharose beads, bound proteins were separated by SDS-PAGE, and two identical blots were prepared and probed by western blot and by autoradiography to detect protein expression and presence or absence of compound crosslinking, respectively. The flow chart of this screen is illustrated in Fig. 2. […]

[4] = 5 µM, THP1 cells, single experiments

human cannabinoid 1 receptor (hCB1-R), sequence (P21554 whole entry): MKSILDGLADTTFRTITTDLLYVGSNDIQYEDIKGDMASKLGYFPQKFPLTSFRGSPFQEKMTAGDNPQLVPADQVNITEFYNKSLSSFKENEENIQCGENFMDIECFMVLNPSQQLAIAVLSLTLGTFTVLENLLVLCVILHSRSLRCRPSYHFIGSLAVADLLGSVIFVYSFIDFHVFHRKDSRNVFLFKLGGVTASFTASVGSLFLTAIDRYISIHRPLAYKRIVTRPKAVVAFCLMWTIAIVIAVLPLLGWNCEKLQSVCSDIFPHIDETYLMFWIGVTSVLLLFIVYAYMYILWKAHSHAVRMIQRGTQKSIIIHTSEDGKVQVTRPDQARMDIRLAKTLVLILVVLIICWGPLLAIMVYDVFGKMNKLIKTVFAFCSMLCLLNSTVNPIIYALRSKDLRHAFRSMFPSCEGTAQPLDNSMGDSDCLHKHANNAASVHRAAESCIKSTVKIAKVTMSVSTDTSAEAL

CCCCC/C=C\C/C=C\C/C=C\C/C=C\CCCC(=O)NCCCl [ACEA, arachidonyl choloroethylamine, reference compound]
ApoA1-mediated Cholesterol Efflux (Fold increase over vehicle control), mean (human THP1 macrophages; 5 µM, THP1 cells, mean of 3): 0.962 fold
ApoA1-mediated Cholesterol Efflux (%) (human THP1 macrophages; [4]): 3% and 2.5% and 1.4%
ApoA1-mediated Cholesterol Efflux (Fold increase over vehicle control) (human THP1 macrophages; [4]): 1.047 fold and 1.044 fold and 0.796 fold
Induction of ABCA1 cholesterol efflux (human THP1 macrophages; THP1 cells (Fig. 3a, 4a)): inactive

O=C(N[C@@H]1CCCC[C@H]1O)c1cnc(OCC2CC2)c(-c2ccc(Cl)cc2)c1 [Cpd H]
Cholesterol efflux to apoAI from normal fibroblasts (normal human fibroblasts): increase cholesterol efflux to apoAI from normal
Cholesterol Efflux (%), Normal Fibroblasts (normal human fibroblasts): 3.97% and 4.44% and 4.67%
Ki [1]: 11.4 ± 4.5 nM
EC50 (human THP1 macrophages; THP-1, apoAI-dependent cholesterol efflux from human THP1 cells): 120 nM
ABCA1 percentage of induction, average (human THP1 macrophages): 106%
ABCA1 Efflux % (human THP1 macrophages): 106(6.8) %
ABCA1 percentage of induction (human THP1 macrophages): 112% and 92% and 113%
Effect on ABCA1 mRNA (ABCA1 mRNA): no effect
OSBP7 percentage of inhibition, average (OSBPL7): 55%
OSBPL7 Competition % (OSBPL7): 55(5.0) %
OSBP7 percentage of inhibition (OSBPL7): 49% and 51% and 65%
Cholesterol efflux to apoAI from ABCA1-deficient fibroblasts [2]: not from ABCA1-deficient fibroblasts
Cholesterol Efflux (%), Tangier Fibroblasts [2]: 1.75% and 1.88% and 1.89%

O=C(N[C@@H]1CCCC[C@H]1O)c1cnc(OCC(F)(F)F)c(-c2ccc(Cl)cc2)c1 [Cpd J]
Cholesterol efflux to apoAI from normal fibroblasts (normal human fibroblasts): increase cholesterol efflux to apoAI from normal
Cholesterol Efflux (%), Normal Fibroblasts (normal human fibroblasts): 5.75% and 6.18% and 6.91%
Ki [1]: 12.4 ± 6.7 nM
ABCA1 percentage of induction, average (human THP1 macrophages): 100%
ABCA1 Efflux % (human THP1 macrophages): 100(15.0) %
ABCA1 percentage of induction (human THP1 macrophages): 83% and 130% and 87%
Effect on ABCA1 mRNA (ABCA1 mRNA): no effect
OSBP7 percentage of inhibition, average (OSBPL7): 40%
OSBPL7 Competition % (OSBPL7): 40(12.2) %
Cholesterol efflux to apoAI from ABCA1-deficient fibroblasts [2]: not from ABCA1-deficient fibroblasts
Cholesterol Efflux (%), Tangier Fibroblasts [2]: 1.8% and 2.06% and 2.65%

[N-]=[N+]=Nc1ccc(-c2cc(C(=O)N[C@@H]3CCCC[C@H]3O)cnc2OCC2CC2)cc1Cl [Cpd K, 5-(4-azido-3-chlorophenyl)-6-(cyclopropylmethoxy)-N-[(1R,2R)-2-hydroxycyclohexyl]-3-pyridine-carboxamide]
Ki [1]: 2570 nM
Fold reduced affinity for hCB1R ([1]; vs Cpd H): more than 200 fold
ABCA1 percentage of induction, average (human THP1 macrophages): 49%
ABCA1 Efflux % (human THP1 macrophages): 49(10.7) %
OSBP7 percentage of inhibition, average (OSBPL7): 68%
OSBPL7 Competition % (OSBPL7): 68(3.8) %
OSBP7 percentage of inhibition (OSBPL7): 62% and 75% and 68%
Competition for ^3H-Cpd K binding to OSBPL7 (OSBPL7; unlabeled Cpd K at 50-fold excess, Cpd A, Cpd G 10 and 50 µM): effectively competed
Reduction of binding/crosslinking to OSBPL7 by mutation K636A [3]: ~ 75%

O=C(N[C@H]1CCCC[C@H]1O)c1cnc(OCC(F)(F)F)c(-c2ccc(Cl)c(Cl)c2)c1 [Cpd L]
Ki [1]: 7000 nM
ABCA1 percentage of induction, average (human THP1 macrophages): 104%
ABCA1 Efflux % (human THP1 macrophages): 104(18.8) %
ABCA1 percentage of induction (human THP1 macrophages): 94% and 77% and 140%
OSBP7 percentage of inhibition, average (OSBPL7): 53%
OSBPL7 Competition % (OSBPL7): 53(4.7) %
OSBP7 percentage of inhibition (OSBPL7): 55% and 44% and 60%

O=C(Nc1cnc(OCC(F)(F)F)c(-c2ccc(Cl)cc2)c1)c1cccnc1 [Cpd M]
Ki [1]: > 10000 nM
ABCA1 percentage of induction, average (human THP1 macrophages): 113%
ABCA1 Efflux % (human THP1 macrophages): 133(42.5) %
OSBP7 percentage of inhibition, average (OSBPL7): 98%
OSBPL7 Competition % (OSBPL7): 98(5.2) %
OSBP7 percentage of inhibition (OSBPL7): 107% and 97% and 89%

CCCCNC(=O)CCc1ccc(-c2cc(C(=O)N[C@@H]3CCCC[C@H]3O)cnc2OCC2CC2)cc1 [Cpd N]
ABCA1 Efflux active/ inactive (human THP1 macrophages; THP1 cells): Inactive
ABCA1 percentage of induction, average (human THP1 macrophages): 24%
ABCA1 Efflux % (human THP1 macrophages): 24(5.0) %
OSBP7 percentage of inhibition, average (OSBPL7): 38%
OSBPL7 Competition % (OSBPL7): 38(9.5) %

Cn1cccc(NC(=O)c2cc(-c3ccc(Cl)cc3)c(OCC(F)(F)F)cn2)c1=O [Cpd P]
ABCA1 Efflux active/ inactive (human THP1 macrophages; THP1 cells): Inactive
ABCA1 percentage of induction, average (human THP1 macrophages): 3.67%
ABCA1 Efflux % (human THP1 macrophages): 4(0.9) %
ABCA1 percentage of induction (human THP1 macrophages): 4% and 5% and 2%
OSBP7 percentage of inhibition, average (OSBPL7): 0%
OSBPL7 Competition % (OSBPL7): 0(0) %
OSBP7 percentage of inhibition (OSBPL7): 0%
